In ChEMBL document CHEMBL1134238, “Synthesis of metabolically blocked paclitaxel analogues” (Bioorg Med Chem Lett, 2001) one finds Tubulin polymerization, T/C and IC50 data, which are given here for six compounds.

The target of experiment [1] is Tubulin alpha chain (Sus scrofa) (UniProt P02550). Description: Compound was tested in vitro for inhibition of tubulin polymerization, expressed as ratio to that obtained for paclitaxel. It is filed as functional. The following applies: Homo sapiens.
The subject of experiment [2] is M109. The experiment is described as follows: Compound was tested in vivo against M109 using Madison murine lung carcinoma (M109) tumor model at 40 mg/kg. It is filed as functional, Mus musculus.
Another experiment deals with HCT-116. The experiment is described as follows: Compound was tested for cytotoxicity against human colon tumor cell line (HCT116). It is filed as functional, cell-based.
For experiment [3], the system named is M109. The experiment is described as follows: Compound was tested in vivo against M109 using Madison murine lung carcinoma (M109) tumor model at 32 mg/kg. In kind it is functional, Mus musculus.
The subject of experiment [4] is M109. The experiment is described as follows: Compound was tested in vivo against M109 using Madison murine lung carcinoma (M109) tumor model at 200 mg/kg. It is filed as functional, Mus musculus.

Tubulin alpha chain (Sus scrofa), sequence (P02550 whole entry, looked up): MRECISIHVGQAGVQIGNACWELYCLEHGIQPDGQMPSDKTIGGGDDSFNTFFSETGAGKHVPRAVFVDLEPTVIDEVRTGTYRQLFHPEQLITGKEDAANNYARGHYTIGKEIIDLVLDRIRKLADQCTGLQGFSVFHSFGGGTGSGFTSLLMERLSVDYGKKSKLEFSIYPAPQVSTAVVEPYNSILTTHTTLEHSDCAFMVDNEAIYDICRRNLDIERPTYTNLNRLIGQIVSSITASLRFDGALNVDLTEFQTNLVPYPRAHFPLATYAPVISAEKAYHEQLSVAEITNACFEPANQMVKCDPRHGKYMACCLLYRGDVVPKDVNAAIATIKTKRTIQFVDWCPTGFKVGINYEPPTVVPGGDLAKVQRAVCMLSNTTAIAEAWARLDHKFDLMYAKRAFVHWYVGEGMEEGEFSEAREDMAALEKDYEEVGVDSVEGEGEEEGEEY

Usually T/C stands for the result in the treated group divided by that in the control group, in per cent. In the case of `CC(=O)O[C@H]1C(=O)[C@@]2(C)[C@H]([C@H](OC(=O)c3ccccc3)[C@]3(O)C[C@H](OC(=O)[C@H](O)[C@@H](NC(=O)c4ccccc4)c4ccccc4)C(C)=C1C3(C)C)[C@]1(OC(C)=O)CO[C@@H]1C[C@@H]2O` [PACLITAXEL], in experiment [1], the Tubulin polymerization was 1. Further, the T/C in the experiment with M109 [2] came to 215%.

As a reminder, the IC50 is the concentration at which inhibition is half-maximal. High values mean weaker potency, low ones greater potency. The compound `CC(=O)O[C@H]1C(=O)[C@@]2(C)C([C@H](OC(=O)c3ccccc3)[C@]3(O)C[C@H](OC(=O)[C@H](O)[C@@H](NC(=O)c4ccccc4)c4ccccc4)C(C)=C1C3(C)C)[C@]1(OC(C)=O)CO[C@@H]1[C@@H](Br)[C@@H]2O` (some centres undefined) yielded an IC50 with HCT-116 of 2.6 nM. The Tubulin polymerization in experiment [1] was determined as 1.1.

`CC(=O)O[C@H]1C(=O)[C@@]2(C)C([C@H](OC(=O)c3ccccc3)[C@]3(O)C[C@H](OC(=O)[C@H](O)[C@@H](NC(=O)OC(C)(C)C)c4ccccc4)C(C)=C1C3(C)C)[C@]1(OC(C)=O)CO[C@@H]1C[C@@H]2O` (some centres undefined) came in with a T/C in the experiment on M109 [3] of 177%. The compound further showed an IC50 in the experiment on HCT-116 of 1.8 nM. Besides, the Tubulin polymerization in experiment [1] was 0.7.

For the compound `CC(=O)O[C@H]1C(=O)[C@@]2(C)C([C@H](OC(=O)c3ccccc3)[C@]3(O)C[C@H](OC(=O)[C@H](O)[C@@H](NC(=O)c4ccccc4)c4ccccc4)C(C)=C1C3(C)C)[C@]1(OC(C)=O)CO[C@@H]1[C@@H](F)[C@@H]2O` (some centres undefined), the IC50 in the experiment on HCT-116 turned out to be 1.4 nM. Besides, the Tubulin polymerization in experiment [1] is 1.

The compound `CC(=O)O[C@H]1C(=O)[C@@]2(C)C([C@H](OC(=O)c3ccccc3)[C@]3(O)C[C@H](OC(=O)[C@H](O)[C@@H](NC(=O)c4ccccc4)c4ccccc4)C(C)=C1C3(C)C)[C@]1(OC(C)=O)CO[C@@H]1[C@@H](Cl)[C@@H]2O` (some centres undefined) gave an IC50 in the experiment on HCT-116 of 1.2 nM. The Tubulin polymerization in experiment [1] was determined as 0.8. In the experiment on M109 [4], this compound returned a T/C of 203%.

In the experiment with HCT-116, `CC(=O)O[C@H]1C(=O)[C@@]2(C)C([C@H](OC(=O)c3ccccc3)[C@]3(O)C[C@H](OC(=O)[C@H](O)[C@@H](NC(=O)OC(C)(C)C)c4ccccc4)C(C)=C1C3(C)C)[C@]1(OC(C)=O)CO[C@@H]1[C@@H](F)[C@@H]2O` (some centres undefined) returned an IC50 of 0.2 nM. For the same compound, the Tubulin polymerization in experiment [1] worked out at 0.6.
